Results published in patent US20210198258A1, “INTEGRIN ANTAGONISTS” (Oxurion NV, priority 2018, published 2021).

Legend:
[1] = tested on: human umbilical vein endothelial cells (HUVECs); assay: ORIS Cell Migration Assay; type: cell-based; settings: HUVEC, fibronectin-coated plates, 24 h migration
Experimental: Endothelial cell wound healing is mediated by endothelial cell migration and proliferation, both critical components of the angiogenesis process, and is routinely used as a surrogate model for in vitro angiogenic potential. The ORIS™ Cell Migration Assay was used with human umbilical vein endothelial cells (HUVECs).
HUVEC cells (SCCE-001, Cat no. 1000519, Merck Chemicals) were cultured in T175 flasks (Cat no 353112, falcon) in EndoGro Growth Medium (SCME-003, Merck Chemicals) and split when they reached 90-100% confluence.
For the assay, cells were used at passage 2 to 4 after thawing and at 80-90% confluency. At the beginning of the day, the fibronectin-coated Oris™ Cell Migration Assay Plates (Cat no #CMAFN.I01, AMS Biotechnology) were removed from refrigeration and placed at RT for 1 h. […]
Just prior to the end of the incubation, a 4 μg/mL calcein AM (Cat no 354217, Beckton Dickinson) solution was prepared in pre-warmed HBSS (Cat no 14025, Gibco). […] After incubation the fluorescence was read at 494 nm excitation and 517 nm emission wavelengths using the Flexstation and the SofiMax Pro 5.4.5 software (Molecular Devices). The fluorescence was read from the bottom of the plates with the lid on to keep them sterile. The masks were then removed and pictures were taken with the Axiovert fluorescence microscope (Zeiss) using reflected light, GFP and a 2.5× objective.

[2] = tested on: RPE-choroid sclera explants; settings: read-out: IC50 vessel outgrowth; murine choroid explants in fibrin gel, 3 to 4 days
Text: The assay is based on a murine microvascular angiogenesis explant model, which closely mimics in viva choroidal angiogenesis. […] The choroidal explant model or briefly EMCA model allows for rapid evaluation of new anti-angiogenic therapeutics, with the additional benefit of excluding the potential lack of exposure often encountered when testing small molecules in animal eyes. RPE-choroid sclera explants (hereinafter referred to as choroid explants) are embedded in a three-dimensional fibrinogen/fibrin gel. Addition of serum-containing medium induces extensive endothelial cell sprout outgrowth into the matrix after 3 to 4 days in culture.
All experiments were performed using 4 to 5-weeks old male C57BL/6J mice (Charles River Laboratories France), housed under standard laboratory conditions according to a normal day/night rhythm with ad libitum access to food and water. […]
After 3 to 4 days, bright field pictures were taken at 2.5× magnification with the Axio Vert.A1 inverted microscope (Zeiss) using ZEN lite 2012 microscope software (Zeiss). […] Further analysis was performed in Microsoft Excel, where the sprouting area of endothelial organotypic culture was quantified by subtracting the area of the tissue explant from the total area occupied by the sprouts.

What does the source list for `CC(C)[C@H]1C(=O)N[C@@H](CCCN=C(N)N)C(=O)NCC(=O)N[C@@H](CC(=O)O)C(=O)N[C@H](Cc2ccccc2)C(=O)N1C` [Cilengitide]?
IC50 [1]: 100 µM; IC50 [2]: ~300 µM
